Experimental data from US5672715A, “Herbicidal substituted 3-aryl-pyrazoles” (Monsanto Company, priority 1995, dated 1997).

What was measured:
Format in all cases: in vivo
Barnyardgrass [1] = assay: pre-emergence herbicide test; settings: Echinochloa crus-galli, pre-emergence, 0.25 lb/A; read-out: % plant inhibition
Procedure, shortened: (§1)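 Herbicidal effect was assessed as percent inhibition about 14 days after sowing. A known amount of compound was added to the covering topsoil, and the pans were subirrigated in a greenhouse.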

Bedstraw Catchweed [2] = assay: pre-emergence herbicide test; settings: Galium aparine, pre-emergence, 0.25 lb/A; read-out: % plant inhibition
Procedure, shortened: as §1

Birdseye Speedwell [3] = assay: pre-emergence herbicide test; settings: pre-emergence, 0.25 lb/A; read-out: % plant inhibition
Procedure, shortened: as §1

Blackgrass [4] = assay: pre-emergence herbicide test; settings: Alopecurus myosuroides, pre-emergence, 0.25 lb/A; read-out: % plant inhibition
Procedure, shortened: as §1

Cocklebur [5] = assay: pre-emergence herbicide test; settings: Xanthium strumarium, pre-emergence, 0.25 lb/A; read-out: % plant inhibition
Procedure, shortened: as §1

Common Chickweed [6] = assay: pre-emergence herbicide test; settings: pre-emergence, 0.25 lb/A; read-out: % plant inhibition
Procedure, shortened: as §1

Corn [7] = assay: pre-emergence herbicide test; settings: Zea mays, pre-emergence, 0.25 lb/A; read-out: % plant inhibition
Procedure, shortened: as §1

Downy Brome [8] = assay: pre-emergence herbicide test; settings: Bromus tectorum, pre-emergence, 0.25 lb/A; read-out: % plant inhibition
Procedure, shortened: as §1

Giant Foxtail [9] = assay: pre-emergence herbicide test; settings: Setaria faberi, pre-emergence, 0.25 lb/A; read-out: % plant inhibition
Procedure, shortened: as §1

Green Foxtail [10] = assay: pre-emergence herbicide test; settings: Setaria viridis, pre-emergence; 0.25 lb/A; read-out: % plant inhibition
Procedure, shortened: as §1

Morning Glory [11] = assay: pre-emergence herbicide test; settings: Ipomoea, pre-emergence, 0.25 lb/A; read-out: % plant inhibition
Procedure, shortened: as §1

Rape [12] = assay: pre-emergence herbicide test; settings: pre-emergence, 0.25 lb/A; read-out: % plant inhibition
Procedure, shortened: as §1

Seedling Johnsongrass [13] = assay: pre-emergence herbicide test; settings: Sorghum halepense, pre-emergence, 0.25 lb/A; read-out: % plant inhibition
Procedure, shortened: as §1

Soybean [14] = assay: pre-emergence herbicide test; settings: Glycine max, pre-emergence, 0.25 lb/A; read-out: % plant inhibition
Procedure, shortened: as §1

Velvetleaf [15] = assay: pre-emergence herbicide test; settings: Abutilon theophrasti, pre-emergence, 0.25 lb/A; read-out: % plant inhibition
Procedure, shortened: as §1

Wheat [16] = assay: pre-emergence herbicide test; settings: Triticum aestivum, pre-emergence, 0.25 lb/A; read-out: % plant inhibition
Procedure, shortened: as §1

Wild Oats [17] = assay: pre-emergence herbicide test; settings: Avena fatua, pre-emergence, 0.25 lb/A; read-out: % plant inhibition
Procedure, shortened: as §1

Barnyardgrass [18] = assay: post-emergence herbicide test; settings: Echinochloa crus-galli, post-emergence, 0.25 lb/A; read-out: % plant inhibition
Procedure, shortened: (§2)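 Plants grown in greenhouse soil pans for two to three weeks were sprayed with compound in about 0.4% v/v emulsifier at 170.3 kPa and 1870 L/Ha, at the stated application rates. Activity was scored as percent inhibition of each species.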

Bedstraw Catchweed [19] = assay: post-emergence herbicide test; settings: Galium aparine, post-emergence, 0.25 lb/A; read-out: % plant inhibition
Procedure, shortened: as §2

Birdseye Speedwell [20] = assay: post-emergence herbicide test; settings: post-emergence, 0.25 lb/A; read-out: % plant inhibition
Procedure, shortened: as §2

Blackgrass [21] = assay: post-emergence herbicide test; settings: Alopecurus myosuroides, post-emergence, 0.25 lb/A; read-out: % plant inhibition
Procedure, shortened: as §2

Cocklebur [22] = assay: post-emergence herbicide test; settings: Xanthium strumarium, post-emergence, 0.25 lb/A; read-out: % plant inhibition
Procedure, shortened: as §2

Common Chickweed [23] = assay: post-emergence herbicide test; settings: post-emergence, 0.25 lb/A; read-out: % plant inhibition
Procedure, shortened: as §2

Corn [24] = assay: post-emergence herbicide test; settings: Zea mays, post-emergence, 0.25 lb/A; read-out: % plant inhibition
Procedure, shortened: as §2

Downy Brome [25] = assay: post-emergence herbicide test; settings: Bromus tectorum, post-emergence, 0.25 lb/A; read-out: % plant inhibition
Procedure, shortened: as §2

Giant Foxtail [26] = assay: post-emergence herbicide test; settings: Setaria faberi, post-emergence, 0.25 lb/A; read-out: % plant inhibition
Procedure, shortened: as §2

Green Foxtail [27] = assay: post-emergence herbicide test; settings: Setaria viridis, post-emergence, 0.25 lb/A; read-out: % plant inhibition
Procedure, shortened: as §2

Morning Glory [28] = assay: post-emergence herbicide test; settings: Ipomoea, post-emergence, 0.25 lb/A; read-out: % plant inhibition
Procedure, shortened: as §2

Rape [29] = assay: post-emergence herbicide test; settings: post-emergence, 0.25 lb/A; read-out: % plant inhibition
Procedure, shortened: as §2

Seedling Johnsongrass [30] = assay: post-emergence herbicide test; settings: Sorghum halepense, post-emergence, 0.25 lb/A; read-out: % plant inhibition
Procedure, shortened: as §2

Soybean [31] = assay: post-emergence herbicide test; settings: Glycine max, post-emergence, 0.25 lb/A; read-out: % plant inhibition
Procedure, shortened: as §2

Velvetleaf [32] = assay: post-emergence herbicide test; settings: Abutilon theophrasti, post-emergence, 0.25 lb/A; read-out: % plant inhibition
Procedure, shortened: as §2

Wheat [33] = assay: post-emergence herbicide test; settings: Triticum aestivum, post-emergence, 0.25 lb/A; read-out: % plant inhibition
Procedure, shortened: as §2

Wild Oats [34] = assay: post-emergence herbicide test; settings: Avena fatua, post-emergence, 0.25 lb/A; read-out: % plant inhibition
Procedure, shortened: as §2

Compound | inhibition at 280.212 g/ha (Barnyardgrass [1]) | inhibition at 280.212 g/ha (Bedstraw Catchweed [2]) | inhibition at 280.212 g/ha (Birdseye Speedwell [3]) | inhibition at 280.212 g/ha (Blackgrass [4]) | inhibition at 280.212 g/ha (Cocklebur [5]) | inhibition at 280.212 g/ha (Common Chickweed [6]) | inhibition at 280.212 g/ha (Corn [7]) | inhibition at 280.212 g/ha (Downy Brome [8]) | inhibition at 280.212 g/ha (Giant Foxtail [9]) | inhibition at 280.212 g/ha (Green Foxtail [10]) | inhibition at 280.212 g/ha (Morning Glory [11]) | inhibition at 280.212 g/ha (Rape [12]) | inhibition at 280.212 g/ha (Seedling Johnsongrass [13]) | inhibition at 280.212 g/ha (Soybean [14]) | inhibition at 280.212 g/ha (Velvetleaf [15]) | inhibition at 280.212 g/ha (Wheat [16]) | inhibition at 280.212 g/ha (Wild Oats [17]) | inhibition at 280.212 g/ha (Barnyardgrass [18]) | inhibition at 280.212 g/ha (Bedstraw Catchweed [19]) | inhibition at 280.212 g/ha (Birdseye Speedwell [20]) | further results
Cc1c(-c2cc(C(=O)OCC(=O)OC(C)C)c(Cl)cc2F)nn(C)c1C(F)(F)F [Compound 23] | 40% | 45% | 100% | 15% | 10% | 100% | 0% | 15% | 65% | 85% | 25% | 75% | 30% | 5% | 65% | 0% | 10% | 60% | 50% | 75% | inhibition at 280.212 g/ha (Blackgrass [21]): 15%; inhibition at 280.212 g/ha (Cocklebur [22]): 90%; inhibition at 280.212 g/ha (Common Chickweed [23]): 75%; inhibition at 280.212 g/ha (Corn [24]): 7%; inhibition at 280.212 g/ha (Downy Brome [25]): 25%; inhibition at 280.212 g/ha (Giant Foxtail [26]): 20%; inhibition at 280.212 g/ha (Green Foxtail [27]): 15%; inhibition at 280.212 g/ha (Morning Glory [28]): 65%; inhibition at 280.212 g/ha (Rape [29]): 10%; inhibition at 280.212 g/ha (Seedling Johnsongrass [30]): 65%; inhibition at 280.212 g/ha (Soybean [31]): 30%; inhibition at 280.212 g/ha (Velvetleaf [32]): 98%; inhibition at 280.212 g/ha (Wheat [33]): 11%; inhibition at 280.212 g/ha (Wild Oats [34]): 20%
CC(=O)CCCOC(=O)c1cc(-c2nn(C)c(C(F)(F)F)c2C)c(F)cc1Cl [Compound 53] | 85% | 50% | 70% | 15% | 15% | 40% | 5% | 15% | 9% | 100% | 80% | 5% | 75% | 0% | 85% | 0% | 5% | 70% | 95% | 95% | inhibition at 280.212 g/ha (Blackgrass [21]): 25%; inhibition at 280.212 g/ha (Cocklebur [22]): 100%; inhibition at 280.212 g/ha (Common Chickweed [23]): 90%; inhibition at 280.212 g/ha (Corn [24]): 7%; inhibition at 280.212 g/ha (Downy Brome [25]): 45%; inhibition at 280.212 g/ha (Giant Foxtail [26]): 75%; inhibition at 280.212 g/ha (Green Foxtail [27]): 80%; inhibition at 280.212 g/ha (Morning Glory [28]): 99%; inhibition at 280.212 g/ha (Rape [29]): 98%; inhibition at 280.212 g/ha (Seedling Johnsongrass [30]): 75%; inhibition at 280.212 g/ha (Soybean [31]): 75%; inhibition at 280.212 g/ha (Velvetleaf [32]): 100%; inhibition at 280.212 g/ha (Wheat [33]): 16%; inhibition at 280.212 g/ha (Wild Oats [34]): 40%
CCC(CC)COC(=O)c1cc(-c2nn(C)c(C(F)(F)F)c2C)c(F)cc1Cl [Compound 46] | 0% | 75% | 80% | 10% | 10% | 90% | 0% | 15% | 40% | 80% | 20% | 5% | 75% | 0% | 80% | 0% | 5% | 50% | 100% | 100% | inhibition at 280.212 g/ha (Blackgrass [21]): 20%; inhibition at 280.212 g/ha (Cocklebur [22]): 85%; inhibition at 280.212 g/ha (Common Chickweed [23]): 95%; inhibition at 280.212 g/ha (Corn [24]): 15%; inhibition at 280.212 g/ha (Downy Brome [25]): 15%; inhibition at 280.212 g/ha (Giant Foxtail [26]): 0%; inhibition at 280.212 g/ha (Green Foxtail [27]): 70%; inhibition at 280.212 g/ha (Morning Glory [28]): 70%; inhibition at 280.212 g/ha (Rape [29]): 45%; inhibition at 280.212 g/ha (Seedling Johnsongrass [30]): 25%; inhibition at 280.212 g/ha (Soybean [31]): 15%; inhibition at 280.212 g/ha (Velvetleaf [32]): 98%; inhibition at 280.212 g/ha (Wheat [33]): 15%; inhibition at 280.212 g/ha (Wild Oats [34]): 20%
